# In US20080194652A1 (priority 2004, published 2008):
# What was measured:
# [1] = system: CQ-resistant P. falciparum infection; conditions: cited from earlier work
# [2] = system: resistant P. falciparum; conditions: literature; cited from earlier work
# [3] = system: P. falciparum strain 7G8; experiment: 72 hour microplate growth assay, SybrGreen I-based fluorescence readout, drug-resistance reversal; type: cell-based, Plasmodium falciparum; conditions: for decrease of CQ EC50 (chloroquine resistance reversal): with chloroquine, equimolar comparison of (+) and (+/−) CP; for resistance reversal activity inferred from comparison of (+/−) with (+): indirect assessment, chloroquine, chloroquine and quinine
# Description: (§1) Results were determined by SybrGreen I-based fluorescence assay.
# (§2) This indirect assessment was required because only the antihistaminically-active (+) and (+/−) forms are available.
# [4] = system: P. falciparum strain W2; experiment: as above; type: cell-based, Plasmodium falciparum; conditions: for decrease of CQ EC50 (chloroquine resistance reversal): with chloroquine, equimolar comparison of (+) and (+/−) CP; for resistance reversal activity inferred from comparison of (+/−) with (+): indirect assessment, chloroquine, chloroquine and quinine
# Description: as §1, §2
# [5] = system: rodent malaria; conditions: in vivo; cited from earlier work
# [6] = system: cardiac electrophysiology; conditions: cited from earlier work
# [7] = system: Plasmodium falciparum; experiment: in vitro drug-resistance reversal, strain not stated; type: cell-based
# [8] = in vivo; cited from earlier work
# [9] = listed as (+/−)chlorpheniramine
# [10] = with quinine, equimolar comparison
compound,measurement,setting,value
"CN(C)CCC(c1ccc(Cl)cc1)c1ccccn1 (racemic) [(+/−) CP, chlorpheniramine]",drowsiness in clinical trials,[1]; in vivo,drowsiness was consistently found
same,chloroquine resistance reversal in vitro,[2],demonstrated effectiveness
same,decrease of CQ EC50 (chloroquine resistance reversal),[3],at least equivalent to (+) CP
same,decrease of CQ EC50 (chloroquine resistance reversal),[3]; [9],equivalent or slightly superior to the (+) isomer
same,quinine resistance reversal,[3]; [10],equivalent or slightly superior to the (+) isomer
same,decrease of CQ EC50 (chloroquine resistance reversal),[4],at least equivalent to (+) CP
same,decrease of CQ EC50 (chloroquine resistance reversal),[4]; [9],equivalent or slightly superior to the (+) isomer
same,quinine resistance reversal,[4]; [10],equivalent or slightly superior to the (+) isomer
same,effectiveness in rodent malaria models,[5],demonstrated effectiveness
"CN(C)CCC(c1ccc(Cl)cc1)c1ccccn1 (single isomer, unassigned; (-)) [(−) CP, (−) chlorpheniramine]",resistance reversal activity inferred from comparison of (+/−) with (+),[3],active
same,resistance reversal activity inferred from comparison of (+/−) with (+),[3]; listed as (−)chlorpheniramine,must be active
same,resistance reversal activity inferred from comparison of (+/−) with (+),[4],active
same,resistance reversal activity inferred from comparison of (+/−) with (+),[4]; listed as (−)chlorpheniramine,must be active
same,change of cardiac electrophysiology,[6],only at in vitro concentrations far above those needed to restore chloroquine sensitivity
same,chloroquine resistance reversal,[7]; inferred for the (−) isomer,reverses
same,quinine resistance reversal,[7]; inferred for the (−) isomer,reverses
"CN(C)CC[C@@H](c1ccc(Cl)cc1)c1ccccn1 [(+) CP, (+) chlorpheniramine]",decrease of CQ EC50 (chloroquine resistance reversal),[3],active
same,decrease of CQ EC50 (chloroquine resistance reversal),[4],active
CN(C)CCC(c1ccc(Br)cc1)c1ccccn1 (stereo not shown) [brompheniramine],chloroquine resistance reversal,"[7]; with chloroquine, in vitro",chloroquine resistance reversal agents
CNCCCN1c2ccccc2CCc2ccccc21 [desipramine],clinical outcome / cure rates,"[1]; co-administered with chloroquine, clinical trials",ineffective
same,chloroquine resistance reversal in vitro,[2],reversed chloroquine resistance
same,chloroquine resistance reversal in primate animal trial,[8],reversed chloroquine resistance
CN(C)CCC(c1ccc(F)cc1)c1ccccn1 (stereo not shown) [flupheniramine],chloroquine resistance reversal,"[7]; with chloroquine, in vitro",chloroquine resistance reversal agents
CN(C)CCC(c1ccccc1)c1ccccn1 (stereo not shown) [pheniramine],chloroquine resistance reversal,"[7]; with chloroquine, in vitro",chloroquine resistance reversal agents
COc1ccc(CCN(C)CCCC(C#N)(c2ccc(OC)c(OC)c2)C(C)C)cc1OC (stereo not shown) [verapamil],chloroquine resistance reversal in vitro,[2],partially restored chloroquine sensitivity
